Starred links: 1 amine or outer side, 2 acyl side, 3 side chain; linkers in the order of their positions; H or OH if unused. Positions of bridges follow the written chain, without caps; N, C: chain ends. Non-standard residues stand in square brackets, D forms with d. Residues, ends and D or L forms follow the SMILES beside them. Tyr(3-NO2) = N[C@@H](Cc1ccc(O)c([N+](=O)[O-])c1)C(=O)O; Phe(3-CF3) = N[C@@H](Cc1cccc(C(F)(F)F)c1)C(=O)O; Phe(4-COOH) = N[C@@H](Cc1ccc(C(=O)O)cc1)C(=O)O; Bip = N[C@@H](Cc1ccc(-c2ccccc2)cc1)C(=O)O; dPro(4S-NH2) = N[C@@H]1CN[C@@H](C(=O)O)C1; X1 = O=C([C@H](Cc1ccn[nH]1)N[*:1])[*:2]; hTyr = N[C@@H](CCc1ccc(O)cc1)C(=O)O; NMeF = CN[C@@H](Cc1ccccc1)C(=O)O; 3Pal = N[C@@H](Cc1cccnc1)C(=O)O; Aad = N[C@@H](CCCC(=O)O)C(=O)O; Cha = N[C@@H](CC1CCCCC1)C(=O)O; NMeS = CN[C@@H](CO)C(=O)O; NMeA = CN[C@@H](C)C(=O)O; Orn = NCCC[C@H](N)C(=O)O; dNMeA = CN[C@H](C)C(=O)O; Sar = CNCC(=O)O
Target: T1, human PD-1 (Jurkat-PD-1 cells) / PE-labeled human PD-L1-Ig (Homo sapiens, UniProt Q15116)
T1 construct: expressed in transfected cells; host or cells: Jurkat cell line over-expressing human PD-1
T1 sequence (Q15116 25-288): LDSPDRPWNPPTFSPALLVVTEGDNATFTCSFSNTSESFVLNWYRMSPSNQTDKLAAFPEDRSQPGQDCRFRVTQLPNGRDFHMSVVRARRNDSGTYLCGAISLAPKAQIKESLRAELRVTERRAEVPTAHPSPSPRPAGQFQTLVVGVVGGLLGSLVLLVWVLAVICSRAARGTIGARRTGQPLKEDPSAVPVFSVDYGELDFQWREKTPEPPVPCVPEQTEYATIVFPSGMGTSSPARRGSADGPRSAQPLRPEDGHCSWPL
Assay: Jurkat-PD-1 Cell Binding High-Content Screening Assay (CBA); Jurkat hPD1-PDL1 assay
Settings: Jurkat cell line over-expressing human PD-1; PE-labeled PD-L1-Ig 20 nM final; compound incubated 2 hours at 37° C.; read-out: Jurkat HPD1-PDL1 IC50
How it was run: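 Compound was added to Jurkat-PD-1 cells in DMEM plus 10% fetal calf serum and incubated 2 hours at 37° C. Binding of phycoerythrin-conjugated PD-L1-Ig (20 nM final) to the cells was imaged.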

| Compound | IC50 |
| --- | --- |
| CC(C)C[C@@H]1NC(=O)[C@H](CCCNC(=N)N)NC(=O)[C@H](Cc2ccccc2)N(C)C(=O)[C@H](C)N(C)C(=O)[C@H](CCCNC(=N)N)NC(=O)[C@H](Cc2ccc(-c3ccccc3)cc2)NC(=O)[C@H](C(C)C)NC(=O)[C@H](Cc2c[nH]c3ccccc23)NC(=O)[C@H](CC(=O)O)NC(=O)[C@H](Cc2ccc(O)cc2)NC(=O)[C@H](Cc2ccccc2)NC(=O)CSC[C@@H](C(=O)N[C@@H](CO)C(N)=O)NC(=O)[C@H](CO)NC(=O)[C@H](C(C)C)NC1=O [Example 1083] ({CH2CO}-FYDWV[Bip]R[NMeA][NMeF]RLVSCS-NH2; thioether N-14) | 240 nM |
| CC(C)C[C@@H]1NC(=O)[C@H](Cc2c[nH]c3ccccc23)NC(=O)[C@H](CC(=O)O)NC(=O)[C@H](Cc2ccc(O)cc2)NC(=O)[C@H](Cc2ccccc2)NC(=O)CSC[C@@H](C(=O)NCC(N)=O)NC(=O)[C@H](CO)NC(=O)[C@H](C(C)C)NC(=O)[C@H](CC(C)C)NC(=O)[C@H](CC(N)=O)NC(=O)[C@H](CO)N(C)C(=O)[C@H](C)N(C)C(=O)[C@H](C(C)C)NC(=O)[C@H](Cc2ccc(-c3ccccc3)cc2)NC1=O [Example 1084] ({CH2CO}-FYDWL[Bip]V[NMeA][NMeS]NLVSCG-NH2; thioether N-14) | 240 nM |
| CC(C)C[C@@H]1NC(=O)[C@H](C)NC(=O)[C@H]2CCCN2C(=O)[C@H](C)N(C)C(=O)[C@H](CCC(=O)O)NC(=O)[C@H](Cc2ccc(-c3ccccc3)cc2)NC(=O)[C@H](CC(C)C)NC(=O)[C@H](Cc2c[nH]c3ccccc23)NC(=O)[C@H](CC(=O)O)NC(=O)[C@H](Cc2ccc(C(=O)O)cc2)NC(=O)[C@H](Cc2cccnc2)NC(=O)CSC[C@@H](C(=O)N[C@@H](C)C(N)=O)NC(=O)[C@H](CO)NC(=O)[C@H](C(C)C)NC1=O [Example 1085] ({CH2CO}-[3Pal][Phe(4-COOH)]DWL[Bip]E[NMeA][dP]ALVSCA-NH2; thioether N-14) | 240 nM |
| CC(C)C[C@@H]1NC(=O)[C@H](Cc2c[nH]c3ccccc23)NC(=O)[C@H](CC(=O)O)NC(=O)[C@H](CCc2ccc(O)cc2)NC(=O)[C@H](Cc2ccccc2)NC(=O)CSC[C@@H](C(=O)N[C@@H](C)C(N)=O)NC(=O)[C@H](CO)NC(=O)[C@H](C(C)C)NC(=O)[C@H](CC(C)C)NC(=O)[C@H](CC(N)=O)NC(=O)CN(C)C(=O)[C@H](C)N(C)C(=O)[C@H](C(C)C)NC(=O)[C@H](Cc2ccc(-c3ccccc3)cc2)NC1=O [Example 1086] ({CH2CO}-F[hTyr]DWL[Bip]V[NMeA][Sar]NLVSCA-NH2; thioether N-14) | 250 nM |
| CC(C)C[C@@H]1NC(=O)[C@H](Cc2c[nH]c3ccccc23)NC(=O)[C@H](CC(=O)O)NC(=O)[C@H](Cc2ccc(O)c([N+](=O)[O-])c2)NC(=O)[C@H](Cc2ccccc2)NC(=O)CSC[C@@H](C(=O)N[C@@H](C)C(N)=O)NC(=O)[C@H](CO)NC(=O)[C@H](C(C)C)NC(=O)[C@H](CC(C)C)NC(=O)[C@H](CC(N)=O)NC(=O)CN(C)C(=O)[C@H](C)N(C)C(=O)[C@H](C(C)C)NC(=O)[C@H](Cc2ccc(-c3ccccc3)cc2)NC1=O [Example 1087] ({CH2CO}-F[Tyr(3-NO2)]DWL[Bip]V[NMeA][Sar]NLVSCA-NH2; thioether N-14) | 250 nM |
| CC(C)C[C@@H]1NC(=O)[C@H](Cc2ccccc2)NC(=O)[C@H](CC(=O)O)NC(=O)[C@H](Cc2ccc(O)cc2)NC(=O)[C@H](Cc2ccccc2)NC(=O)CSC[C@@H](C(=O)NCC(N)=O)NC(=O)[C@H](CO)NC(=O)[C@H](C(C)C)NC(=O)[C@H](CC(C)C)NC(=O)[C@H](CC(N)=O)NC(=O)CN(C)C(=O)[C@H](C)N(C)C(=O)[C@H](C(C)C)NC(=O)[C@H](Cc2ccc(-c3ccccc3)cc2)NC1=O [Example 1088] ({CH2CO}-FYDFL[Bip]V[NMeA][Sar]NLVSCG-NH2; thioether N-14) | 250 nM |
| CC(C)C[C@@H]1NC(=O)[C@H](Cc2c[nH]c3ccccc23)NC(=O)[C@H](CC(=O)O)NC(=O)[C@H](Cc2ccc(O)cc2)NC(=O)[C@H](Cc2ccccc2)NC(=O)CSC[C@@H](C(=O)N[C@@H](C)C(N)=O)NC(=O)[C@H]([C@@H](C)O)NC(=O)[C@H](CCCCN)NC(=O)[C@H](CC(C)C)NC(=O)[C@H](CC(N)=O)NC(=O)[C@H]2CCCN2C(=O)[C@H](C)N(C)C(=O)[C@H](C(C)C)NC(=O)[C@H](Cc2ccc(-c3ccccc3)cc2)NC1=O [Example 1089] ({CH2CO}-FYDWL[Bip]V[NMeA][dP]NLKTCA-NH2; thioether N-14) | 250 nM |
| CC(C)C[C@@H]1NC(=O)[C@H](Cc2c[nH]c3ccccc23)NC(=O)[C@H](CC(=O)O)NC(=O)[C@H](Cc2ccc(O)cc2)NC(=O)[C@H](Cc2ccccc2)NC(=O)CSC[C@@H](C(=O)N[C@@H](C)C(N)=O)NC(=O)[C@H](CO)NC(=O)[C@H](C(C)C)NC(=O)[C@H](CC(C)C)NC(=O)[C@H](CC(N)=O)NC(=O)[C@H]2C[C@H](N)CN2C(=O)[C@H](C)N(C)C(=O)[C@H](C(C)C)NC(=O)[C@H](Cc2ccc(-c3ccccc3)cc2)NC1=O [Example 1091] ({CH2CO}-FYDWL[Bip]V[NMeA][dPro(4S-NH2)]NLVSCA-NH2; thioether N-14) | 260 nM |
| CC(C)C[C@@H]1NC(=O)[C@H](Cc2c[nH]c3ccccc23)NC(=O)[C@H](CC(=O)O)NC(=O)[C@H](Cc2ccc(O)cc2)NC(=O)[C@H](Cc2ccccc2)NC(=O)CSC[C@@H](C(=O)N[C@@H](C)C(N)=O)NC(=O)[C@H](CO)NC(=O)[C@H](C(C)C)NC(=O)[C@H](CC(C)C)NC(=O)[C@H](CC(N)=O)NC(=O)CN(C)C(=O)[C@H](C)N(C)C(=O)[C@H](CCCC(=O)O)NC(=O)[C@H](Cc2ccc(-c3ccccc3)cc2)NC1=O [Example 1092] ({CH2CO}-FYDWL[Bip][Aad][NMeA][Sar]NLVSCA-NH2; thioether N-14) | 260 nM |
| CC(C)C[C@@H]1NC(=O)[C@H](Cc2c[nH]c3ccccc23)NC(=O)[C@H](CC(=O)O)NC(=O)[C@H](Cc2ccc(O)cc2)NC(=O)[C@H](Cc2ccccc2)NC(=O)CSC[C@@H](C(=O)N[C@@H](C)C(N)=O)NC(=O)[C@H](CO)NC(=O)[C@H](C(C)C)NC(=O)[C@H](CC2CCCCC2)NC(=O)[C@H](CC(N)=O)NC(=O)CN(C)C(=O)[C@H](C)N(C)C(=O)[C@H](C(C)C)NC(=O)[C@H](Cc2ccc(-c3ccccc3)cc2)NC1=O [Example 1093] ({CH2CO}-FYDWL[Bip]V[NMeA][Sar]N[Cha]VSCA-NH2; thioether N-14) | 270 nM |
| CC(C)C[C@@H]1NC(=O)[C@H](Cc2c[nH]c3ccccc23)NC(=O)[C@H](CC(=O)O)NC(=O)[C@H](Cc2ccc(O)cc2)NC(=O)[C@H](Cc2ccn[nH]2)NC(=O)CSC[C@@H](C(=O)N[C@@H](C)C(N)=O)NC(=O)[C@H](CO)NC(=O)[C@H](C(C)C)NC(=O)[C@H](CC(C)C)NC(=O)[C@H](CC(N)=O)NC(=O)CN(C)C(=O)[C@H](C)N(C)C(=O)[C@H](C(C)C)NC(=O)[C@H](Cc2ccc(-c3ccccc3)cc2)NC1=O [Example 1094] ({CH2CO}-[X1]YDWL[Bip]V[NMeA][Sar]NLVSCA-NH2; thioether N-14) | 280 nM |

The next molecules have a lower IC50 than those just listed; values first:

| IC50 | Compound |
| --- | --- |
| 220 nM | CC(C)C[C@@H]1NC(=O)[C@H](Cc2c[nH]c3ccccc23)NC(=O)[C@H](CC(=O)O)NC(=O)[C@H](Cc2ccc(O)cc2)NC(=O)[C@H](Cc2ccccc2)NC(=O)CSC[C@@H](C(=O)N[C@@H](C)C(N)=O)NC(=O)[C@H](CO)NC(=O)[C@H](C(C)C)NC(=O)[C@H](CC(C)C)NC(=O)[C@H](CCCNC(=N)N)NC(=O)[C@H](Cc2ccccc2)N(C)C(=O)[C@H](C)N(C)C(=O)[C@H](CCCNC(=N)N)NC(=O)[C@H](Cc2ccc(-c3ccccc3)cc2)NC1=O [Example 1078] ({CH2CO}-FYDWL[Bip]R[NMeA][NMeF]RLVSCA-NH2; thioether N-14) |
| 220 nM | CC(C)C[C@@H]1NC(=O)[C@H](Cc2c[nH]c3ccccc23)NC(=O)[C@H](CC(=O)O)NC(=O)[C@H](Cc2ccc(O)cc2)NC(=O)[C@H](Cc2ccccc2)NC(=O)CSC[C@@H](C(=O)NCC(N)=O)NC(=O)[C@H](CO)NC(=O)[C@H](C(C)C)NC(=O)[C@H](CC(C)C)NC(=O)[C@H](CCCN)NC(=O)CN(C)C(=O)[C@H](C)N(C)C(=O)[C@H](C(C)C)NC(=O)[C@H](Cc2ccc(-c3ccccc3)cc2)NC1=O [Example 1079] ({CH2CO}-FYDWL[Bip]V[NMeA][Sar][Orn]LVSCG-NH2; thioether N-14) |
| 230 nM | CC(C)C[C@@H]1NC(=O)[C@H](Cc2c[nH]c3ccccc23)NC(=O)[C@H](CC(=O)O)NC(=O)[C@H](Cc2cccnc2)NC(=O)[C@H](Cc2ccccc2)NC(=O)CSC[C@@H](C(=O)N[C@@H](C)C(N)=O)NC(=O)[C@H](CO)NC(=O)[C@H](C(C)C)NC(=O)[C@H](CC(C)C)NC(=O)[C@H](CC(N)=O)NC(=O)CN(C)C(=O)[C@H](C)N(C)C(=O)[C@H](C(C)C)NC(=O)[C@H](Cc2ccc(-c3ccccc3)cc2)NC1=O [Example 1080] ({CH2CO}-F[3Pal]DWL[Bip]V[NMeA][Sar]NLVSCA-NH2; thioether N-14) |
| 230 nM | CC(C)C[C@@H]1NC(=O)[C@H](Cc2cccc(C(F)(F)F)c2)NC(=O)[C@H](CC(=O)O)NC(=O)[C@H](Cc2ccc(O)cc2)NC(=O)[C@H](Cc2ccccc2)NC(=O)CSC[C@@H](C(=O)N[C@@H](C)C(N)=O)NC(=O)[C@H](CO)NC(=O)[C@H](C(C)C)NC(=O)[C@H](CC(C)C)NC(=O)[C@H](CC(N)=O)NC(=O)CN(C)C(=O)[C@H](C)N(C)C(=O)[C@H](C(C)C)NC(=O)[C@H](Cc2ccc(-c3ccccc3)cc2)NC1=O [Example 1081] ({CH2CO}-FYD[Phe(3-CF3)]L[Bip]V[NMeA][Sar]NLVSCA-NH2; thioether N-14) |
| 230 nM | CC(C)C[C@@H]1NC(=O)[C@H](Cc2c[nH]c3ccccc23)NC(=O)[C@H](CC(=O)O)NC(=O)[C@H](Cc2ccc(O)cc2)NC(=O)[C@H](Cc2ccccc2)NC(=O)CSC[C@@H](C(=O)NCC(N)=O)NC(=O)[C@H](CO)NC(=O)[C@H](C(C)C)NC(=O)[C@H](CC(C)C)NC(=O)[C@H](CC(N)=O)NC(=O)[C@@H](C)N(C)C(=O)[C@H](C)N(C)C(=O)[C@H](C(C)C)NC(=O)[C@H](Cc2ccc(-c3ccccc3)cc2)NC1=O [Example 1082] ({CH2CO}-FYDWL[Bip]V[NMeA][dNMeA]NLVSCG-NH2; thioether N-14) |
